Assay results published in US10392368B2, “Pyrazolo and triazolo bicyclic compounds as JAK kinase inhibitors” (THERAVANCE BIOPHARMA R&D IP, LLC, priority 2017, dated 2019).

Assays:
[1] = target: T1, JAK2 (Homo sapiens, UniProt O60674); test: Biochemical JAK2 kinase assay (LanthaScreen); conditions: for Ki: read-out: JAK 2 (pKi) (converted)
T1 construct: GST; purchased Life Technologies
Method: (§1) A panel of four LanthaScreen JAK biochemical assays (JAK1, 2, 3 and Tyk2) were carried in a common kinase reaction buffer (50 mM HEPES, pH 7.5, 0.01% Brij-35, 10 mM MgCl2, and 1 mM EGTA). Recombinant GST-tagged JAK enzymes and a GFP-tagged STAT1 peptide substrate were obtained from Life Technologies.
(§2) Serially or discretely diluted compounds were pre-incubated with each of the four JAK enzymes and the substrate in white 384-well microplates (Corning) at ambient temperature for 1 h. ATP was subsequently added to initiate the kinase reactions in 10 μL total volume, with 1% DMSO. […] Kinase reactions were allowed to proceed for 1 hour at ambient temperature before a 10 μL preparation of EDTA (10 mM final concentration) and Tb-anti-pSTAT1 (pTyr701) antibody (Life Technologies, 2 nM final concentration) in TR-FRET dilution buffer (Life Technologies) was added. The plates were allowed to incubate at ambient temperature for 1 h before being read on the EnVision reader (Perkin Elmer).
(§3) For dose-response analysis, percent inhibition data were plotted vs. compound concentrations, and IC50 values were determined from a 4-parameter robust fit model with the Prism software (GraphPad Software). Results were expressed as pIC50 (negative logarithm of IC50) and subsequently converted to pKi (negative logarithm of dissociation constant, Ki) using the Cheng-Prusoff equation.

[2] = target: T2, JAK1 (Homo sapiens, UniProt P23458); test: Biochemical JAK1 kinase assay (LanthaScreen); conditions: for Ki: read-out: JAK 1 (pKi) (converted)
T2 construct: GST; purchased Life Technologies
T2 sequence (P23458 whole entry): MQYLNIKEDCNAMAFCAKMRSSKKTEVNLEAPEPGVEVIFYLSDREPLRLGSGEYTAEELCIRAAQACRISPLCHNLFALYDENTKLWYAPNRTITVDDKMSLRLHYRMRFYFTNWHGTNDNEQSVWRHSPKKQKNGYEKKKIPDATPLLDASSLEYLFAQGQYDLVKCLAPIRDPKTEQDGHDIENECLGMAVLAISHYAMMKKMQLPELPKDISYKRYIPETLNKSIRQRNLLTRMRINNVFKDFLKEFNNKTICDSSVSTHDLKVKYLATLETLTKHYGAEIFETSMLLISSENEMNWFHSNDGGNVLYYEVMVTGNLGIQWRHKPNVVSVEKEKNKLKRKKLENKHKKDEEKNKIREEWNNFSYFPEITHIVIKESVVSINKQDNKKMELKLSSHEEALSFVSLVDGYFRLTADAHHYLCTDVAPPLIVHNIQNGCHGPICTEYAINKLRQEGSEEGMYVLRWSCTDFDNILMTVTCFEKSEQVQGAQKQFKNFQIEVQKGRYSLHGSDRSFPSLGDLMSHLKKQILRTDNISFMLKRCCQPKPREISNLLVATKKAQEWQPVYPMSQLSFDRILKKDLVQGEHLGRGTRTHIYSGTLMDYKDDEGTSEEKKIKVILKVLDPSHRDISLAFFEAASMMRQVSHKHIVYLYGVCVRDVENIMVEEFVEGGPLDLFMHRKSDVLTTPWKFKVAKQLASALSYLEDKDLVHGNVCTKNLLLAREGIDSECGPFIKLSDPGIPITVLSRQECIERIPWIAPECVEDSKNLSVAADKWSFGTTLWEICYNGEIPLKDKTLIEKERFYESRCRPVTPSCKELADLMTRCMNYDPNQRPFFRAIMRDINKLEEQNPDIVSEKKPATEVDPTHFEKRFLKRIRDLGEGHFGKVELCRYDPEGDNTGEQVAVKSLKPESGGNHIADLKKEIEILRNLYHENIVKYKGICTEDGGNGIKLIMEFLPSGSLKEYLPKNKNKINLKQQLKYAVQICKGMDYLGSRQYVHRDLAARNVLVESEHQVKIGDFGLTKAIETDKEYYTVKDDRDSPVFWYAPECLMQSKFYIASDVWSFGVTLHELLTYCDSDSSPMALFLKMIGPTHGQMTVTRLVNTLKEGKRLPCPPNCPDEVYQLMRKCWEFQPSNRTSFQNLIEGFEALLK
Procedure, shortened: (§4)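 GST-JAK + GFP-STAT1 peptide + cpd, 1 h preinc RT; ATP start, 1% DMSO, 1 h RT; stop 10 mM EDTA + 2 nM Tb-anti-pSTAT1; 1 h; TR-FRET 520/495. % inhib vs DMSO/background → IC50 (4-PL) → pKi (Cheng-Prusoff).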

[3] = target: T3, Tyk2 (Homo sapiens, UniProt P29597); test: Biochemical Tyk2 kinase assay (LanthaScreen); conditions: for Ki: read-out: Tyk 2 (pKi) (converted)
T3 construct: GST; purchased Life Technologies
T3 sequence (P29597 whole entry): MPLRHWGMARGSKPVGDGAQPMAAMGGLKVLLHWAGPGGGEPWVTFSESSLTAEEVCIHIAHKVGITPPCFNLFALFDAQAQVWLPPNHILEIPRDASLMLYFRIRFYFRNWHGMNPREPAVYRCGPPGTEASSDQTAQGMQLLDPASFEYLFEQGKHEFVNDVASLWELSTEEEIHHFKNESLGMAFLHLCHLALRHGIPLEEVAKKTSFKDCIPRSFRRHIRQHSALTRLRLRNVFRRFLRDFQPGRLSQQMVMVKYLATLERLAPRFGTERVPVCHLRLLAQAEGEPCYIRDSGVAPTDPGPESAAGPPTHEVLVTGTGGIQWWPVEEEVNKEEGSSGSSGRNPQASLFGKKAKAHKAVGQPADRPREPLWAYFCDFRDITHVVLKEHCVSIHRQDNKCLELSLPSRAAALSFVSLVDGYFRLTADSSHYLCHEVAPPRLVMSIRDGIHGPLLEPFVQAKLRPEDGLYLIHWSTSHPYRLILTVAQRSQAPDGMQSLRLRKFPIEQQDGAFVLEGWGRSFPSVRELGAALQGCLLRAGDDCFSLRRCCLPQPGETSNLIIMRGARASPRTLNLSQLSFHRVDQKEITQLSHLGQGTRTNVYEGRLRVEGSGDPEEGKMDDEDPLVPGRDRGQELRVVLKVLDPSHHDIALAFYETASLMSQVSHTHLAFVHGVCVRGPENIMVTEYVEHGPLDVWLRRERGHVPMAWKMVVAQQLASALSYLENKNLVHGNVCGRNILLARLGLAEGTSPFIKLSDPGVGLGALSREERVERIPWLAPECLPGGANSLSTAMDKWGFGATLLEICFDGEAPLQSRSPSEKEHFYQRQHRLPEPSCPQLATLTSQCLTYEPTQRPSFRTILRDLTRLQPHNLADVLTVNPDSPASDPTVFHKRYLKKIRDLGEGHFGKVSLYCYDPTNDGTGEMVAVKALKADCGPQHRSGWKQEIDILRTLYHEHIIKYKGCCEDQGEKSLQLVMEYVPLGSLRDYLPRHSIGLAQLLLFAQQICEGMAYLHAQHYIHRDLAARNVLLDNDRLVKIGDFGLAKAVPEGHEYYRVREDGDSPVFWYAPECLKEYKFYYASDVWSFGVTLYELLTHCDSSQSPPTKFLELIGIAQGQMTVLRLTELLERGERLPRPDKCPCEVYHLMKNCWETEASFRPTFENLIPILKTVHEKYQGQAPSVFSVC
Method: as §1
as §2, with “Elmer). Emission ratio signals (520 nm/495 nm) were recorded and utilized to calculate the percent inhibition values based on DMSO and background controls.” for “Elmer).”
as §3

[4] = tested on: IL-2 stimulated pSTAT5 in Tall-1 T cells; test: Cellular JAK3 potency assay: inhibition of IL-2 stimulated pSTAT5 in Tall-1 T cells; assay type: cell-based, human; conditions: for IC50: Homo sapiens, TALL-1, IL-2 stimulated pSTAT5 in Tall-1 T cells, read-out: Tall-1 (pIC50) (converted); for Tall-1 (pIC50): IL-2 stimulated pSTAT5 in Tall-1 T cells
Procedure, shortened: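 Tall-1 human T cells (45,000/well) in phenol red-free DMEM with 10% FBS were preincubated with compound 1 h at 37 °C, then stimulated with IL-2 (final 300 ng/ml) for 30 min. Lysate pSTAT5 read by AlphaLisa; IC50 from inhibition curves, reported as pIC50 (mean±SD).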

[5] = target: T4, JAK3 (Homo sapiens, UniProt P52333); test: Biochemical JAK3 kinase assay (LanthaScreen); parameters: GST; purchased Life Technologies; conditions: for Ki: read-out: JAK 3 (pKi) (converted); for JAK3 (pKi)-JAK1 (pKi): selectivity: difference of pKi JAK3 and pKi JAK1
T4 sequence (P52333 1-1124): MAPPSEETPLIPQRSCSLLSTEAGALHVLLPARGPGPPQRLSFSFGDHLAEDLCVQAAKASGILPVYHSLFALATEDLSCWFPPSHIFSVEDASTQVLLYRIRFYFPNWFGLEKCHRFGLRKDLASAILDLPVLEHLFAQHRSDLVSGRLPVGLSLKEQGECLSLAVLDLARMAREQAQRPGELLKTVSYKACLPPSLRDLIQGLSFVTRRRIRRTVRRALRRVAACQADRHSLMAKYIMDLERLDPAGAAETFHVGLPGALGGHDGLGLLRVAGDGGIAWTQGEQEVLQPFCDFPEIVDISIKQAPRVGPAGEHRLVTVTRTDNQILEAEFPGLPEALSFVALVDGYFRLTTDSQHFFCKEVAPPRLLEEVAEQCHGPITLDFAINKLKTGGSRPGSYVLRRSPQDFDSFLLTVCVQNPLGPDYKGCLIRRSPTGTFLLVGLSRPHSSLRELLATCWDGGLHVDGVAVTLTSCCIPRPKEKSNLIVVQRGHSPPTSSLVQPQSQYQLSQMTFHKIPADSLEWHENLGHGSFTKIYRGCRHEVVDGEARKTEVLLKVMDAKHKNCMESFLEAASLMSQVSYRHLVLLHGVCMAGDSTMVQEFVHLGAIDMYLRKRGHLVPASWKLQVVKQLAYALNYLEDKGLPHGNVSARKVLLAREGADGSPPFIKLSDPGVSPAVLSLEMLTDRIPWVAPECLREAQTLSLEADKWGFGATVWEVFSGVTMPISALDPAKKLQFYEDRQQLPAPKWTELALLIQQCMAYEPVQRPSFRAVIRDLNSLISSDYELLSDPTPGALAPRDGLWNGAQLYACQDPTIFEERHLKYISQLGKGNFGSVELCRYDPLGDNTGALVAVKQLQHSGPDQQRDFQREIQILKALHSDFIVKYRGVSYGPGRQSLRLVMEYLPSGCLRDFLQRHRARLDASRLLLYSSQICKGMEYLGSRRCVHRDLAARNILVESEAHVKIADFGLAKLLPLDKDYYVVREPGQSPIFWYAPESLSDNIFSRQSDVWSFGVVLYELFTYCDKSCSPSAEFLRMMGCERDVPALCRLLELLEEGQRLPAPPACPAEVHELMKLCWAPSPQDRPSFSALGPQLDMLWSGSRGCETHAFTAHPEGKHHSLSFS
Procedure, shortened: as §4

T1 sequence (O60674 whole entry): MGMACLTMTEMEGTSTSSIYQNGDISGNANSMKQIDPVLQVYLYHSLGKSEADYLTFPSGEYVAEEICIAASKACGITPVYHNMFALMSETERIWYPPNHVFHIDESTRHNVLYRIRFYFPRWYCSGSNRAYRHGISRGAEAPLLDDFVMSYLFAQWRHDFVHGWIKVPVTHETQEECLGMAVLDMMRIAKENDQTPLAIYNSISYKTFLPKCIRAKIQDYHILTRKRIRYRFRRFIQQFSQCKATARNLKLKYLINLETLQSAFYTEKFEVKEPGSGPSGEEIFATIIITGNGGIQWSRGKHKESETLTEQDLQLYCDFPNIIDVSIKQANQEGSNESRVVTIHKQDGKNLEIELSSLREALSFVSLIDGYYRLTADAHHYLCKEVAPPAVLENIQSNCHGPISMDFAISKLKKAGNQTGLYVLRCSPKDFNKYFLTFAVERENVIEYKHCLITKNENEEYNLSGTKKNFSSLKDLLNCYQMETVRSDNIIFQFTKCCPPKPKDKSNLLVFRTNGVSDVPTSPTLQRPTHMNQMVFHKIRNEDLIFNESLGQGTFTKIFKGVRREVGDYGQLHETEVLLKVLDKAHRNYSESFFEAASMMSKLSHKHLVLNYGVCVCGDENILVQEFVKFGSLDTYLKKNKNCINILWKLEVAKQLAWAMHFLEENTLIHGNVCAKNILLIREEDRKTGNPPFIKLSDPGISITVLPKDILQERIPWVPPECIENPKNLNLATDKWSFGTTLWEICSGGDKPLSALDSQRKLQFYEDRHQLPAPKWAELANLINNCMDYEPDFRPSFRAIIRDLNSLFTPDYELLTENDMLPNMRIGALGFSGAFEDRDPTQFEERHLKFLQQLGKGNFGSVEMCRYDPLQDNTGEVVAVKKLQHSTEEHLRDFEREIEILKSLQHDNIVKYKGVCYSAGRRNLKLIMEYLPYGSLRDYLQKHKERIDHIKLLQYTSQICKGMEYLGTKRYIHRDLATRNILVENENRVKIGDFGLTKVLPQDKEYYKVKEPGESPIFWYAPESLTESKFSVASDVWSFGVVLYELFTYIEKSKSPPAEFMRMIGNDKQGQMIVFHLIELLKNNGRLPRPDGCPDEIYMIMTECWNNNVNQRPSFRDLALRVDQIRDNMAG

Structure (SMILES) | Ki [1] [nM] | Ki [2] [nM] | Ki [3] [nM] | IC50 [4] [nM] | Ki [5] [nM] | JAK3 (pKi)-JAK1 (pKi) [5] | JAK 2 (pKi) [1] | JAK 1 (pKi) [2] | Tyk 2 (pKi) [3] | Tall-1 (pIC50) [4] | JAK 3 (pKi) [5]
C=CC(=O)N1C[C@@H](Oc2cc(-c3ccc(O)cc3)cc3[nH]ncc23)C[C@H]1C [Compound 1-11] | > 100 | > 100 | > 100 | < 31.6 | < 0.1 | A (a value of 3 or above) | – | – | – | – | –
C=CC(=O)N1CC[C@H](Oc2cc(-c3ccc(O)c(F)c3Cl)cc3[nH]ncc23)C1 [Compound 1-15] | > 100 | > 100 | > 100 | 31.6 to 200 | < 0.1 | A (a value of 3 or above) | – | – | – | – | –
C=CC(=O)N1CC[C@H](Oc2cc(-c3cc(F)c(O)cc3C)cc3[nH]ncc23)C1 [Compound 1-16] | 10 to 100 | > 100 | > 100 | 31.6 to 200 | 0.1 to 1 | B (a value of 2.3 to 3) | – | – | – | – | –
C=CC(=O)N1CC[C@H](Oc2cc(-c3ccc(O)cc3F)cc3[nH]ncc23)C1 [Compound 1-17] | 10 to 100 | > 100 | > 100 | < 31.6 | 0.1 to 1 | A (a value of 3 or above) | – | – | – | – | –
C=CC(=O)N1CC[C@H](Oc2cc(-c3c(F)cc(O)cc3F)cc3[nH]ncc23)C1 [Compound 1-18] | 10 to 100 | 10 to 100 | > 100 | < 31.6 | 0.1 to 1 | B (a value of 2.3 to 3) | – | – | – | – | –
C=CC(=O)N1CC[C@H](Oc2cc(-c3cc(F)c(O)cc3F)cc3[nH]ncc23)C1 [Compound 1-19] | – | – | – | – | – | A (a value of 3 or above) | D (a pKi value between 7 and 8 (Ki between 100 nM and 10 nM)) | E (a pKi value of 7 or below (Ki of 100 nM or above)) | E (a pKi value of 7 or below (Ki of 100 nM or above)) | B (a pIC50 value between 6.7 (included) and 7.5 (IC50 between 200 nM and 32 nM)) | B (a pKi value between 9 and 10 (Ki between 1 nM and 0.1 nM))
C=CC(=O)N1CC[C@H](Oc2cc(-c3ccc(O)cc3)cc3[nH]nc(C)c23)C1 [Compound 1-20] | 10 to 100 | > 100 | > 100 | < 31.6 | 0.1 to 1 | B (a value of 2.3 to 3) | – | – | – | – | –
C=CC(=O)N1CC[C@H](Oc2cc(-c3ccc(O)cc3)cc3[nH]nc(NC)c23)C1 [Compound 1-21] | > 100 | > 100 | > 100 | 31.6 to 200 | 0.1 to 1 | A (a value of 3 or above) | – | – | – | – | –
C=CC(=O)N1CC[C@H](Oc2cc(-c3ccc(O)cc3)cc3[nH]nc(COC)c23)C1 [Compound 1-22] | 10 to 100 | > 100 | > 100 | 31.6 to 200 | < 0.1 | A (a value of 3 or above) | – | – | – | – | –
C=CC(=O)N1CC(Oc2nc(-c3ccc(O)cc3)nc3[nH]ncc23)CC1C (stereo not drawn) [Compound 1-24] | – | – | – | – | – | A (a value of 3 or above) | E (a pKi value of 7 or below (Ki of 100 nM or above)) | E (a pKi value of 7 or below (Ki of 100 nM or above)) | E (a pKi value of 7 or below (Ki of 100 nM or above)) | C (a pIC50 value between 6 and 6.7 (IC50 between 1 μM and 200 nM)) | B (a pKi value between 9 and 10 (Ki between 1 nM and 0.1 nM))
C=CC(=O)N1C[C@@H](Oc2cc(-c3ccc(O)cc3)nc3[nH]ncc23)C[C@H]1C [Compound 1-26] | > 100 | > 100 | > 100 | 31.6 to 200 | < 0.1 | A (a value of 3 or above) | – | – | – | – | –
C=CC(=O)N1CC[C@H](Oc2nc(-c3ccc(O)c(F)c3)cc3[nH]ncc23)C1 [Compound 1-27] | 10 to 100 | > 100 | > 100 | 31.6 to 200 | < 0.1 | A (a value of 3 or above) | – | – | – | – | –
Cc1cc(O)c(F)cc1-c1cc(O[C@H]2CCN(C(=O)/C=C/CN(C)C)C2)c2cn[nH]c2c1 [Compound 1-29] | 10 to 100 | 10 to 100 | > 100 | 31.6 to 200 | 0.1 to 1 | B (a value of 2.3 to 3) | – | – | – | – | –
C=CC(=O)N1CC[C@H](Oc2cc(-c3ccc(O)cc3)nc3[nH]nc(C)c23)C1 [Compound 1-31] | > 100 | > 100 | > 100 | 31.6 to 200 | < 0.1 | A (a value of 3 or above) | – | – | – | – | –
C=CC(=O)N1CC[C@H](Oc2cc(-c3ccc(O)c(F)c3)nc3[nH]nc(C)c23)C1 [Compound 1-33] | > 100 | > 100 | > 100 | 31.6 to 200 | 0.1 to 1 | A (a value of 3 or above) | – | – | – | – | –
C=CC(=O)N1CC[C@H](Oc2nc(-c3ccc(O)cc3)cc3[nH]nc(C)c23)C1 [Compound 1-34] | 10 to 100 | > 100 | > 100 | < 31.6 | 0.1 to 1 | A (a value of 3 or above) | – | – | – | – | –
C=CC(=O)N1CC[C@H](Oc2nc(-c3ccc(O)c(F)c3)cc3[nH]nc(C)c23)C1 [Compound 1-36] | 10 to 100 | 10 to 100 | > 100 | < 31.6 | 0.1 to 1 | B (a value of 2.3 to 3) | – | – | – | – | –
C=CC(=O)N1CC[C@H](Oc2nc(-c3ccc(O)c(F)c3)nc3[nH]nc(C)c23)C1 [Compound 1-38] | > 100 | > 100 | > 100 | 31.6 to 200 | < 0.1 | A (a value of 3 or above) | – | – | – | – | –
C=CC(=O)N1CC[C@H](Oc2cc(-c3ccc(O)c(F)c3)cc3[nH]nc(SC)c23)C1 [Compound 1-40] | > 100 | > 100 | > 100 | 31.6 to 200 | 0.1 to 1 | B (a value of 2.3 to 3) | – | – | – | – | –
